Key:
Type in all cases: in vivo
[1] = system: barnyardgrass (Echinochloa crus-galli, ECHCG); experiment: Test A pre-emergence, barnyardgrass; details: after 13 d
Outline: (§1)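 Seeds sown in pots of standard soil and sprayed one day later, pre-emergence, at 15.625, 62.5 or 250 g/ha in acetone/water (50:50) with 0.5% Tween 20. Grown in glasshouse at 24/16 °C, 14 h light, 65% humidity. Damage scored after 13 d (0 none, 100 total).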

[2] = system: corn (Zea mays, ZEAMX); experiment: Test A post-emergence, corn; details: after 13 d
Outline: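 Plants were grown 8 d in a glasshouse (24/16° C day/night, 14 h light, 65% humidity), then sprayed post-emergence at 15.625, 62.5 or 250 g/ha in acetone/water (50:50) with 0.5% Tween 20. Damage was scored visually after 13 d (0 = none, 100 = total).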

[3] = system: plants; experiment: Test D post-emergence, other plants of Tables D2 and D4; details: for damage to plant (100=total damage to plant; 0=no damage to plant), ABUTH / damage to plant (100=total damage to plant; 0=no damage to plant), AMARE / damage to plant (100=total damage to plant; 0=no damage to plant), BIDPI / damage to plant (100=total damage to plant; 0=no damage to plant), BRAPL / damage to plant (100=total damage to plant; 0=no damage to plant), CYPES / damage to plant (100=total damage to plant; 0=no damage to plant), DIGSA / damage to plant (100=total damage to plant; 0=no damage to plant), ECHCG / damage to plant (100=total damage to plant; 0=no damage to plant), ELEIN / damage to plant (100=total damage to plant; 0=no damage to plant), EPHHL / damage to plant (100=total damage to plant; 0=no damage to plant), GLXMA / damage to plant (100=total damage to plant; 0=no damage to plant), IPOHE / damage to plant (100=total damage to plant; 0=no damage to plant), ORYSA / damage to plant (100=total damage to plant; 0=no damage to plant), PANMI / damage to plant (100=total damage to plant; 0=no damage to plant), SETFA / damage to plant (100=total damage to plant; 0=no damage to plant), SORVU: post-emergence
Outline: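 Damage was rated visually from 0 (none) to 100 (total), at 20 DAA for pre-emergence and 15 d for post-emergence. Plants grew from safener-treated seed in a glasshouse at 24/18° C. or 20/16° C. day/night, 65% humidity, watered twice daily.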

[4] = system: ivy-leaved morning glory (Ipomoea hederacea, IPOHE); experiment: Test A pre-emergence, ivy-leaved morning glory; details: after 13 d
Outline: as §1

[5] = system: velvetleaf (Abutilon theophrasti, ABUTH); experiment: Test A pre-emergence, velvetleaf; details: after 13 d
Outline: as §1

[6] = "Cereals" Postemergent, Rates 130, evaluated after 15 d
[7] = "Cereals" Postemergent, Rates 250, evaluated after 15 d
[8] = "Cereals" Postemergent, Rates 500, evaluated after 15 d

CN1CC(c2cc(C(F)(F)F)n(C)n2)C(C(=O)Nc2ccc(F)nc2F)C1=O (racemic) [Compound 22]
80: damage to plant (100=total damage; 0=no damage) ZEAMX ([2]; Post-Emergence at 250 g/ha)
20: damage to plant (100=total damage; 0=no damage) ZEAMX ([2]; Post-Emergence at 15.625 g/ha) | CHEAL damage rating (100=total damage to plant; 0=no damage to plant) [3, 7] | HORVW damage rating (100=total damage to plant; 0=no damage to plant) [3, 8] | SINAR damage rating (100=total damage to plant; 0=no damage to plant) ([3]; SINAR, "Cereals" Postemergent, Rates 500, evaluated after 15 d) | damage to plant (100=total damage to plant; 0=no damage to plant), BIDPI ([3]; rate 500, evaluated after 15 d) | damage to plant (100=total damage to plant; 0=no damage to plant), EPHHL ([3]; rate 250, evaluated after 15 d) | damage to plant (100=total damage to plant; 0=no damage to plant), PANMI ([3]; rate 250, evaluated after 15 d) | damage to plant (100=total damage to plant; 0=no damage to plant), SETFA ([3]; rate 500, evaluated after 15 d)
0: ALOMY damage rating (100=total damage to plant; 0=no damage to plant) [3, 6] | ALOMY damage rating (100=total damage to plant; 0=no damage to plant) [3, 7] | AVEFA damage rating (100=total damage to plant; 0=no damage to plant) [3, 6] | AVEFA damage rating (100=total damage to plant; 0=no damage to plant) [3, 7] | BEAVA damage rating (100=total damage to plant; 0=no damage to plant) [3, 6] | BEAVA damage rating (100=total damage to plant; 0=no damage to plant) [3, 7] | BROTE damage rating (100=total damage to plant; 0=no damage to plant) [3, 6] | BROTE damage rating (100=total damage to plant; 0=no damage to plant) [3, 7] | BROTE damage rating (100=total damage to plant; 0=no damage to plant) [3, 8] | CHEAL damage rating (100=total damage to plant; 0=no damage to plant) [3, 6] | GALAP damage rating (100=total damage to plant; 0=no damage to plant) [3, 6] | HORVW damage rating (100=total damage to plant; 0=no damage to plant) [3, 6] | KCHSC damage rating (100=total damage to plant; 0=no damage to plant) [3, 6] | KCHSC damage rating (100=total damage to plant; 0=no damage to plant) [3, 7] | KCHSC damage rating (100=total damage to plant; 0=no damage to plant) [3, 8] | LOLPE damage rating (100=total damage to plant; 0=no damage to plant) [3, 6] | LOLPE damage rating (100=total damage to plant; 0=no damage to plant) [3, 7] | LOLPE damage rating (100=total damage to plant; 0=no damage to plant) [3, 8] | POAAN damage rating (100=total damage to plant; 0=no damage to plant) [3, 6] | POAAN damage rating (100=total damage to plant; 0=no damage to plant) [3, 7] | POAAN damage rating (100=total damage to plant; 0=no damage to plant) [3, 8] | POLCO damage rating (100=total damage to plant; 0=no damage to plant) [3, 6] | POLCO damage rating (100=total damage to plant; 0=no damage to plant) [3, 7] | STEME damage rating (100=total damage to plant; 0=no damage to plant) [3, 6] | STEME damage rating (100=total damage to plant; 0=no damage to plant) [3, 7] | VERPE damage rating (100=total damage to plant; 0=no damage to plant) [3, 6] | damage to plant (100=total damage to plant; 0=no damage to plant), ABUTH ([3]; rate 130, evaluated after 15 d) | damage to plant (100=total damage to plant; 0=no damage to plant), AMARE ([3]; rate 130, evaluated after 15 d) | damage to plant (100=total damage to plant; 0=no damage to plant), AMARE ([3]; rate 250, evaluated after 15 d) | damage to plant (100=total damage to plant; 0=no damage to plant), AMARE ([3]; rate 500, evaluated after 15 d) | damage to plant (100=total damage to plant; 0=no damage to plant), BIDPI ([3]; rate 130, evaluated after 15 d) | damage to plant (100=total damage to plant; 0=no damage to plant), BIDPI ([3]; rate 250, evaluated after 15 d) | damage to plant (100=total damage to plant; 0=no damage to plant), BRAPL ([3]; rate 130, evaluated after 15 d) | damage to plant (100=total damage to plant; 0=no damage to plant), CYPES ([3]; rate 130, evaluated after 15 d) | damage to plant (100=total damage to plant; 0=no damage to plant), CYPES ([3]; rate 250, evaluated after 15 d) | damage to plant (100=total damage to plant; 0=no damage to plant), ECHCG ([3]; rate 130, evaluated after 15 d) | damage to plant (100=total damage to plant; 0=no damage to plant), EPHHL ([3]; rate 130, evaluated after 15 d) | damage to plant (100=total damage to plant; 0=no damage to plant), GLXMA ([3]; rate 130, evaluated after 15 d) | damage to plant (100=total damage to plant; 0=no damage to plant), ORYSA ([3]; rate 130, evaluated after 15 d) | damage to plant (100=total damage to plant; 0=no damage to plant), ORYSA ([3]; rate 250, evaluated after 15 d) | damage to plant (100=total damage to plant; 0=no damage to plant), ORYSA ([3]; rate 500, evaluated after 15 d) | damage to plant (100=total damage to plant; 0=no damage to plant), SETFA ([3]; rate 130, evaluated after 15 d) | damage to plant (100=total damage to plant; 0=no damage to plant), SETFA ([3]; rate 250, evaluated after 15 d) | damage to plant (100=total damage to plant; 0=no damage to plant), SORVU ([3]; rate 130, evaluated after 15 d) | damage to plant (100=total damage to plant; 0=no damage to plant), SORVU ([3]; rate 250, evaluated after 15 d) | damage to plant (100=total damage to plant; 0=no damage to plant), SORVU ([3]; rate 500, evaluated after 15 d) | damage to plant (100=total damage; 0=no damage) IPOHE ([4]; Pre-Emergence at 15.625 g/ha) | damage to plant (100=total damage; 0=no damage) IPOHE ([4]; Pre-Emergence at 62.5 g/ha) | damage to plant (100=total damage; 0=no damage) IPOHE ([4]; Pre-Emergence at 250 g/ha) | damage to plant (100=total damage; 0=no damage) ABUTH ([5]; Pre-Emergence at 15.625 g/ha) | damage to plant (100=total damage; 0=no damage) ABUTH ([5]; Pre-Emergence at 62.5 g/ha) | damage to plant (100=total damage; 0=no damage) ABUTH ([5]; Pre-Emergence at 250 g/ha)
60: VERPE damage rating (100=total damage to plant; 0=no damage to plant) [3, 8] | damage to plant (100=total damage to plant; 0=no damage to plant), DIGSA ([3]; rate 250, evaluated after 15 d) | damage to plant (100=total damage to plant; 0=no damage to plant), DIGSA ([3]; rate 500, evaluated after 15 d)
10: ALOMY damage rating (100=total damage to plant; 0=no damage to plant) [3, 8] | AVEFA damage rating (100=total damage to plant; 0=no damage to plant) [3, 8] | BEAVA damage rating (100=total damage to plant; 0=no damage to plant) [3, 8] | BRSNN damage rating (100=total damage to plant; 0=no damage to plant) [3, 6] | BRSNN damage rating (100=total damage to plant; 0=no damage to plant) [3, 7] | BRSNN damage rating (100=total damage to plant; 0=no damage to plant) [3, 8] | GALAP damage rating (100=total damage to plant; 0=no damage to plant) [3, 8] | HORVW damage rating (100=total damage to plant; 0=no damage to plant) [3, 7] | POLCO damage rating (100=total damage to plant; 0=no damage to plant) [3, 8] | damage to plant (100=total damage to plant; 0=no damage to plant), ABUTH ([3]; rate 250, evaluated after 15 d) | damage to plant (100=total damage to plant; 0=no damage to plant), CYPES ([3]; rate 500, evaluated after 15 d) | damage to plant (100=total damage to plant; 0=no damage to plant), ELEIN ([3]; rate 130, evaluated after 15 d) | damage to plant (100=total damage to plant; 0=no damage to plant), ELEIN ([3]; rate 250, evaluated after 15 d) | damage to plant (100=total damage to plant; 0=no damage to plant), GLXMA ([3]; rate 250, evaluated after 15 d) | damage to plant (100=total damage to plant; 0=no damage to plant), IPOHE ([3]; rate 130, evaluated after 15 d)
50: VERPE damage rating (100=total damage to plant; 0=no damage to plant) [3, 7] | damage to plant (100=total damage to plant; 0=no damage to plant), BRAPL ([3]; rate 250, evaluated after 15 d) | damage to plant (100=total damage to plant; 0=no damage to plant), ECHCG ([3]; rate 500, evaluated after 15 d) | damage to plant (100=total damage to plant; 0=no damage to plant), IPOHE ([3]; rate 500, evaluated after 15 d)
40: damage to plant (100=total damage; 0=no damage) ZEAMX ([2]; Post-Emergence at 62.5 g/ha) | GALAP damage rating (100=total damage to plant; 0=no damage to plant) [3, 7] | damage to plant (100=total damage to plant; 0=no damage to plant), DIGSA ([3]; rate 130, evaluated after 15 d) | damage to plant (100=total damage to plant; 0=no damage to plant), ECHCG ([3]; rate 250, evaluated after 15 d) | damage to plant (100=total damage to plant; 0=no damage to plant), ELEIN ([3]; rate 500, evaluated after 15 d) | damage to plant (100=total damage to plant; 0=no damage to plant), GLXMA ([3]; rate 500, evaluated after 15 d) | damage to plant (100=total damage to plant; 0=no damage to plant), PANMI ([3]; rate 500, evaluated after 15 d)
30: CHEAL damage rating (100=total damage to plant; 0=no damage to plant) [3, 8] | STEME damage rating (100=total damage to plant; 0=no damage to plant) [3, 8] | damage to plant (100=total damage to plant; 0=no damage to plant), ABUTH ([3]; rate 500, evaluated after 15 d) | damage to plant (100=total damage to plant; 0=no damage to plant), EPHHL ([3]; rate 500, evaluated after 15 d) | damage to plant (100=total damage to plant; 0=no damage to plant), IPOHE ([3]; rate 250, evaluated after 15 d)
70: damage to plant (100=total damage; 0=no damage) ECHCG ([1]; Pre-Emergence at 15.625 g/ha) | damage to plant (100=total damage to plant; 0=no damage to plant), BRAPL ([3]; rate 500, evaluated after 15 d) | damage to plant (100=total damage to plant; 0=no damage to plant), PANMI ([3]; rate 130, evaluated after 15 d)
90: damage to plant (100=total damage; 0=no damage) ECHCG ([1]; Pre-Emergence at 62.5 g/ha) | damage to plant (100=total damage; 0=no damage) ECHCG ([1]; Pre-Emergence at 250 g/ha)
